Laboratory results as given in a compilation of properties of binary mixtures (doi:10.1016/j.jct.2008.09.001).

Experiment: xn = mol fraction of the nth substance listed
Details: 101.3 kPa

CCCC[n+]1ccccc1.F[B-](F)(F)F + O
viscosity [mPa·s]
Details	x2 = 0	x2 = 0.11	x2 = 0.263	x2 = 0.391	x2 = 0.414	x2 = 0.549	x2 = 0.637	x2 = 0.724	x2 = 0.856
283.15 K	464	211	–	44.9	41.27	22.77	–	–	5.53
288.15 K	313	–	60.2	–	32.98	18.49	–	–	4.58
293.15 K	223	115.6	47.4	29.05	26.81	15.37	10.82	7.61	3.88
298.15 K	163.3	88.1	38.1	23.97	22.21	12.99	9.16	–	3.36
303.15 K	123	–	31.12	20.01	18.63	–	8	5.65	2.94
308.15 K	94.2	53.4	25.87	16.93	15.81	9.61	7.01	4.92	2.6
313.15 K	70.3	43.2	21.69	14.51	13.58	–	6.13	–	2.32
318.15 K	55.8	35.5	18.48	12.53	11.77	7.41	5.43	3.85	2.09
323.15 K	45.1	29.49	15.87	10.93	10.22	6.57	4.78	3.46	1.9
328.15 K	37.1	–	13.77	9.58	9.06	5.86	4.29	–	1.74
333.15 K	30.9	21.18	12.04	8.6	–	5.19	3.87	2.82	1.61
338.15 K	26.01	18.21	10.57	7.71	7.17	4.68	–	2.58	1.5
343.15 K	22.17	–	–	–	6.37	4.24	3.22	2.37	1.4
353.15 K	15.84	–	–	–	–	–	–	–	–

CCCCCCCC[n+]1ccccc1.F[B-](F)(F)F + O
viscosity [mPa·s]
Details	x2 = 0	x2 = 0.1	x2 = 0.184	x2 = 0.324	x2 = 0.477	x2 = 0.562	x2 = 0.67	x2 = 0.758	x2 = 0.783
283.15 K	640	404	261	161.4	116.4	63.8	65.55	51.8	54.27
288.15 K	–	–	–	–	–	49.84	–	–	38.63
293.15 K	320	–	–	–	69.9	39.6	40.42	28.74	29.21
298.15 K	234	159.1	112.3	72	55.07	31.77	–	–	22.73
303.15 K	171.9	122.5	86	57.88	44.37	26.47	26.82	19.17	18.09
308.15 K	–	96.2	68.3	47.09	36.11	–	22.27	15.97	–
313.15 K	105.7	71.5	54.93	38.75	30.19	–	–	13.56	12.78
318.15 K	–	57.41	44.98	–	25.23	16.88	15.98	11.52	11.08
323.15 K	64.89	46.73	37.06	–	21.39	–	13.65	9.95	9.39
328.15 K	53.52	–	–	23.23	18.15	12.05	11.88	–	8.2
333.15 K	–	–	–	19.92	15.84	10.61	10.38	–	7.17
338.15 K	38.1	27.06	22.38	17.32	13.44	–	–	6.75	6.31
343.15 K	32.38	23.06	19.25	–	11.58	8.15	–	5.99	5.58
348.15 K	–	19.83	16.71	13.13	–	7.17	7.19	5.29	4.97
353.15 K	24.05	–	–	–	–	–	–	–	–
